US11713335B2, “Aminocoumarin compounds and methods of their use” (President and Fellows of Harvard College, priority 2018, dated 2023)
Converted amounts (≈) assume the structure as drawn. Where two headings read alike, the source gives them in different places.

Columns and labels:
Assay type in all cases: cell-based
E. coli 25922 = assay: Minimal inhibitory concentration, E. coli 25922; conditions: 16 hour minimal inhibitory concentration at 37° C., read-out: MIC (μM) E. coli 25922
Description: (§1) General Procedure for Determination of Minimal Inhibitory Concentrations
(§2) Overnight cultures (5 mL) of bacterial strains were grown in LB media or TSA media (for S. aureus) at 37° C. and with shaking at 220 rpm until saturation. The overnight culture was diluted serially 1:100 (50 μL in 5 mL sterile media) and then 1:100 (250 μL in 25 mL sterile media). The 25 mL of diluted culture was then dispensed to a sterile 96 well plate (Corning #3370). 198 μL of culture were dispensed into row A and 100 μL of this culture were dispensed into rows B-H. Aminocoumarin compound (DMSO stock) were added to the first row and then the row was mixed by pipetting. 100 μL of culture from row A were transferred to row B and the serial dilution continued until the final 100 μL from row H were discarded. The plate was incubated without shaking in a 37° C. for 16 hours and then read by visible light spectrophotometer (Molecular Devices) at 600 nm. The minimal inhibitory concentration (MIC) was determined as the lowest concentration of compound concentration that inhibited the growth of bacteria.
(§3) The compounds of the invention were assessed for activities against the pathogens S. aureus RN4220 and MW2, E. cloacae 13047, A. baumannii 19606, K. pneumoniae 700721, E. coli MC4100, 25922. All activities are reported in micromolar (uM) and are 16 hour minimal inhibitory concentrations at 37° C. The assay is detailed in Example 11 and is titled “General Procedure for Determination of Minimal Inhibitory Concentrations.”

S. aureus MW2 = assay: Minimal inhibitory concentration, S. aureus MW2; conditions: 16 hour minimal inhibitory concentration at 37° C., read-out: MIC (μM) S. aureus MW2 (MRSA)
Description: as §1, §2, §3

A. baumannii 19606 = assay: Minimal inhibitory concentration, A. baumannii 19606; conditions: 16 hour minimal inhibitory concentration at 37° C., read-out: MIC (μM) A. baumannii 19606
Description: as §1, §2, §3

E. coli MC4100 = assay: Minimal inhibitory concentration, E. coli MC4100; conditions: 16 hour minimal inhibitory concentration at 37° C., read-out: MIC (μM) E. coli MC4100 ara+
Description: as §1, §2, §3

S. aureus RN4220 = assay: Minimal inhibitory concentration, S. aureus RN4220; conditions: 16 hour minimal inhibitory concentration at 37° C., read-out: MIC (μM) S. aureus RN4220
Description: as §1, §2, §3

K. pneumoniae 700721 = assay: Minimal inhibitory concentration, K. pneumoniae 700721; conditions: 16 hour minimal inhibitory concentration at 37° C., read-out: MIC (μM) K. pneumoniae 700721
Description: as §1, §2, §3

E. cloacae 13047 = assay: Minimal inhibitory concentration, E. cloacae 13047; conditions: 16 hour minimal inhibitory concentration at 37° C., read-out: MIC (μM) E. cloacae 13047
Description: as §1, §2, §3

[1] = Staphylococcus aureus, MRSA, 16 h
[2] = Acinetobacter baumannii, 19606, 16 h
[3] = Staphylococcus aureus, RN4220, 16 h

SMILES: CO[C@@H]1[C@@H](OC(N)=O)[C@@H](O)[C@H](Oc2ccc3c(O)c(NC(=O)c4cccc(Oc5ccc(C(C)(C)C)cc5)c4)c(=O)oc3c2C)OC1(C)C [Compound 248]
- MIC (E. coli 25922; Escherichia coli, 25922, 16 h): 148 µM (≈ 100 µg/mL)
- MIC (S. aureus MW2; [1]): 2.3 µM (≈ 1.56 µg/mL)
- MIC (A. baumannii 19606; [2]): > 50 µM
- MIC (E. coli MC4100; Escherichia coli, MC4100, 16 h): > 200 µM
- MIC (S. aureus RN4220; [3]): 2.3 µM (≈ 1.56 µg/mL)
- MIC (K. pneumoniae 700721; Klebsiella pneumoniae, 700721): > 100 µM
- MIC (E. cloacae 13047; Enterobacter cloacae, 13047): > 100 µM

SMILES: CO[C@@H]1[C@@H](OC(N)=O)[C@@H](O)[C@H](Oc2ccc3c(O)c(NC(=O)OC(C)(C)C)c(=O)oc3c2C)OC1(C)C [Compound 209]
- MIC (E. coli 25922; Escherichia coli, 25922, 16 h): > 200 µM
- MIC (S. aureus MW2; [1]): > 100 µM
- MIC (A. baumannii 19606; [2]): > 50 µM
- MIC (E. coli MC4100; Escherichia coli, MC4100, 16 h): > 200 µM
- MIC (S. aureus RN4220; [3]): > 100 µM
- MIC (K. pneumoniae 700721; Klebsiella pneumoniae, 700721): > 100 µM
- MIC (E. cloacae 13047; Enterobacter cloacae, 13047): > 100 µM

SMILES: C#CCOc1cccc(C(=O)Nc2c(O)c3ccc(O[C@@H]4OC(C)(C)[C@H](OC)[C@@H](OC(N)=O)[C@H]4O)c(C)c3oc2=O)c1 [Compound 230]
- MIC (E. coli 25922; Escherichia coli, 25922, 16 h): 172 µM (≈ 100 µg/mL)
- MIC (S. aureus MW2; [1]): 86 µM (≈ 50.1 µg/mL)
- MIC (A. baumannii 19606; [2]): > 50 µM
- MIC (E. coli MC4100; Escherichia coli, MC4100, 16 h): 86 µM (≈ 50.1 µg/mL)
- MIC (S. aureus RN4220; [3]): 86 µM (≈ 50.1 µg/mL)
- MIC (K. pneumoniae 700721; Klebsiella pneumoniae, 700721): > 100 µM
- MIC (E. cloacae 13047; Enterobacter cloacae, 13047): > 100 µM

SMILES: CO[C@@H]1[C@@H](OC(N)=O)[C@@H](O)[C@H](Oc2ccc3c(O)c(NC(=O)c4cccc(Oc5cccc(C)c5)c4)c(=O)oc3c2C)OC1(C)C [Compound 247]
- MIC (E. coli 25922; Escherichia coli, 25922, 16 h): 39 µM (≈ 24.8 µg/mL)
- MIC (S. aureus MW2; [1]): 5 µM (≈ 3.17 µg/mL)
- MIC (A. baumannii 19606; [2]): > 50 µM
- MIC (E. coli MC4100; Escherichia coli, MC4100, 16 h): 18 µM (≈ 11.4 µg/mL)
- MIC (S. aureus RN4220; [3]): 10 µM (≈ 6.35 µg/mL)
- MIC (K. pneumoniae 700721; Klebsiella pneumoniae, 700721): > 100 µM
- MIC (E. cloacae 13047; Enterobacter cloacae, 13047): > 100 µM

SMILES: CO[C@@H]1[C@@H](OC(N)=O)[C@@H](O)[C@H](Oc2ccc3c(O)c(NC(=O)c4ccc(Br)cc4)c(=O)oc3c2C)OC1(C)C [Compound 204]
- MIC (E. coli 25922; Escherichia coli, 25922, 16 h): > 200 µM
- MIC (S. aureus MW2; [1]): 82 µM (≈ 49.8 µg/mL)
- MIC (A. baumannii 19606; [2]): > 50 µM
- MIC (E. coli MC4100; Escherichia coli, MC4100, 16 h): > 200 µM
- MIC (S. aureus RN4220; [3]): 82 µM (≈ 49.8 µg/mL)
- MIC (K. pneumoniae 700721; Klebsiella pneumoniae, 700721): > 100 µM
- MIC (E. cloacae 13047; Enterobacter cloacae, 13047): > 100 µM

SMILES: CO[C@@H]1[C@@H](OC(N)=O)[C@@H](O)[C@H](Oc2ccc3c(O)c(NC(=O)c4ccc(I)c(Oc5ccccc5)c4)c(=O)oc3c2C)OC1(C)C [Compound 252]
- MIC (E. coli 25922; Escherichia coli, 25922, 16 h): 33 µM (≈ 24.6 µg/mL)
- MIC (S. aureus MW2; [1]): 2 µM (≈ 1.49 µg/mL)
- MIC (A. baumannii 19606; [2]): > 50 µM
- MIC (E. coli MC4100; Escherichia coli, MC4100, 16 h): 17 µM (≈ 12.7 µg/mL)
- MIC (S. aureus RN4220; [3]): 2.3 µM (≈ 1.72 µg/mL)
- MIC (K. pneumoniae 700721; Klebsiella pneumoniae, 700721): 38 µM (≈ 28.4 µg/mL)
- MIC (E. cloacae 13047; Enterobacter cloacae, 13047): > 100 µM

SMILES: CO[C@@H]1[C@@H](OC(N)=O)[C@@H](O)[C@H](Oc2ccc3c(O)c(NC(=O)c4cccc(Oc5ccc(F)cc5)c4)c(=O)oc3c2C)OC1(C)C [Compound 249]
- MIC (E. coli 25922; Escherichia coli, 25922, 16 h): < 1.56 µM
- MIC (S. aureus MW2; [1]): 20 µM (≈ 12.8 µg/mL)
- MIC (A. baumannii 19606; [2]): > 50 µM
- MIC (E. coli MC4100; Escherichia coli, MC4100, 16 h): 5 µM (≈ 3.19 µg/mL)
- MIC (S. aureus RN4220; [3]): 20 µM (≈ 12.8 µg/mL)
- MIC (K. pneumoniae 700721; Klebsiella pneumoniae, 700721): 20 µM (≈ 12.8 µg/mL)
- MIC (E. cloacae 13047; Enterobacter cloacae, 13047): > 100 µM

SMILES: CO[C@@H]1[C@@H](OC(N)=O)[C@@H](O)[C@H](Oc2ccc3c(O)c(NC(=O)c4cccc(-c5cc[nH]n5)c4)c(=O)oc3c2C)OC1(C)C [Compound 201]
- MIC (E. coli 25922; Escherichia coli, 25922, 16 h): > 200 µM
- MIC (S. aureus MW2; [1]): 42 µM (≈ 25 µg/mL)
- MIC (A. baumannii 19606; [2]): > 50 µM
- MIC (E. coli MC4100; Escherichia coli, MC4100, 16 h): > 200 µM
- MIC (S. aureus RN4220; [3]): 42 µM (≈ 25 µg/mL)
- MIC (K. pneumoniae 700721; Klebsiella pneumoniae, 700721): > 100 µM
- MIC (E. cloacae 13047; Enterobacter cloacae, 13047): > 100 µM

SMILES: Cc1c(O)ccc2c(O)c(NC(=O)c3ccc(I)c(-c4ccccc4)c3)c(=O)oc12 [Compound 228]
- MIC (E. coli 25922; Escherichia coli, 25922, 16 h): > 200 µM
- MIC (S. aureus MW2; [1]): 97 µM (≈ 49.8 µg/mL)
- MIC (A. baumannii 19606; [2]): > 50 µM
- MIC (E. coli MC4100; Escherichia coli, MC4100, 16 h): > 200 µM
- MIC (S. aureus RN4220; [3]): 97 µM (≈ 49.8 µg/mL)
- MIC (K. pneumoniae 700721; Klebsiella pneumoniae, 700721): > 100 µM
- MIC (E. cloacae 13047; Enterobacter cloacae, 13047): > 100 µM

SMILES: CCCNC(=O)O[C@H]1[C@H](Oc2ccc3c(O)c(NC(=O)c4ccc(O)c(CC=C(C)C)c4)c(=O)oc3c2C)OC(C)(C)[C@H](OC)[C@H]1O [Compound 109]
- MIC (E. coli 25922): >200 µM
- MIC (S. aureus MW2): 1.53 µM (≈ 1 µg/mL)
- MIC (A. baumannii 19606): 10 µM (≈ 6.55 µg/mL)
- MIC (E. coli MC4100): >200 µM
- MIC (S. aureus RN4220): 1.53 µM (≈ 1 µg/mL)
- MIC (K. pneumoniae 700721): >100 µM
- MIC (E. cloacae 13047): >100 µM
